Here are results for 6 molecules from patent publication US20260355165A1, “2,3,4,9-TETRAHYDRO-1H-PYRIDO[3,4-B]INDOLE DERIVATIVES AS ESTROGEN RECEPTOR MODULATORS FOR THE TREATMENT OF CANCER” (Olema Pharmaceuticals, Inc., priority 2022, published 2026).

The target in the assay is T1, estrogen receptor (Homo sapiens, UniProt P03372).
T1 construct: endogenous in cells; host or cells: ECC-1 cells
T1 sequence (P03372 1-595): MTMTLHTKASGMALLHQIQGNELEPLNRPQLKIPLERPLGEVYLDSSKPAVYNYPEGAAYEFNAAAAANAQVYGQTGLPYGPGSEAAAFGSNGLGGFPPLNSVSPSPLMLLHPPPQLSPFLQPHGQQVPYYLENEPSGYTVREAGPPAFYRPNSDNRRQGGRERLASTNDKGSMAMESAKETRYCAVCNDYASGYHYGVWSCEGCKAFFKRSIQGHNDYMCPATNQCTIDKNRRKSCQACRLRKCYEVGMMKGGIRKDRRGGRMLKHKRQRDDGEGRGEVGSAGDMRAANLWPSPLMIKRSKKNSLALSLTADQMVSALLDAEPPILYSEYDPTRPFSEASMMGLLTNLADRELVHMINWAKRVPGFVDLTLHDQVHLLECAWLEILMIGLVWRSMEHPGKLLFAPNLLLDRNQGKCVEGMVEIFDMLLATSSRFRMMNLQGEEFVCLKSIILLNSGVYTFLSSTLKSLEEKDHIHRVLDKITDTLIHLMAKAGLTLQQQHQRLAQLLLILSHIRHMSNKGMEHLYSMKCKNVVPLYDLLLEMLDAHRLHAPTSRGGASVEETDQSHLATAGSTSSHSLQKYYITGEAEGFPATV
The experiment in a line: AP assay (alkaline phosphatase activity in ECC-1 cells), agonist mode (absence of E2) and antagonist mode (presence of 500 pM E2). Format: cell-based. The note with it: 3 days, AP activity normalized to 500 pM E2 alone, agonist and antagonist mode combined. A digest of the protocol:
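ECC-1 cells in hormone-depleted medium treated with compounds for 3 days, without E2 (agonist mode) or with 500 pM E2 (antagonist mode). AP activity read at 405 nm after p-nitrophenyl phosphate substrate, 40 min at 42 °C. Signal normalized to 500 pM E2 alone.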
`C[C@@H]1Cc2c([nH]c3ccccc23)[C@@H](c2ccc3[nH]c(CN4CC5(CC(F)C5)C4)cc3c2)N1CC(C)(C)F` [Compound I-52, (1R,3R)-1-[2-[(6-fluoro-2-azaspiro[3.3]heptan-2-yl)methyl]-1H-indol-5-yl]-2-(2-fluoro-2-methyl-propyl)-3-methyl-1,3,4,9-tetrahydropyrido[3,4-b]indole]: the “Activity (estrogen receptor modulation, e.g., agonism and antagonism)” value (shortened to “Activity”) was “++ (estrogen receptor antagonism having (i) between 10% and 80% increase in the E2-normalized signal in the AP assay (agonist mode) and (ii) between 10% and 80% reduction in the E2-normalized signal in the AP assay (antagonist mode))”.

For the molecule `C[C@@H]1Cc2c([nH]c3ccccc23)[C@@H](c2ccc3[nH]c(CN4CC(F)(F)C4)cc3c2)N1CC(C)(C)F` [Compound I-101, (1R,3R)-1-[2-[(3,3-difluoroazetidin-1-yl)methyl]-1H-indol-5-yl]-2-(2-fluoro-2-methyl-propyl)-3-methyl-1,3,4,9-tetrahydropyrido[3,4-b]indole], the “Activity” value is “++ (estrogen receptor antagonism having (i) between 10% and 80% increase in the E2-normalized signal in the AP assay (agonist mode) and (ii) between 10% and 80% reduction in the E2-normalized signal in the AP assay (antagonist mode))”.

As to `C[C@@H]1Cc2c([nH]c3ccccc23)[C@@H](c2ccc3nc(CN4CC(CF)C4)oc3c2)N1CC(C)(C)F` [Compound I-72, 2-[[3-(fluoromethyl)azetidin-1-yl]methyl]-6-[(1R,3R)-2-(2-fluoro-2-methyl-propyl)-3-methyl-1,3,4,9-tetrahydropyrido[3,4-b]indol-1-yl]-1,3-benzoxazole], the “Activity” value was “+ (estrogen receptor agonism having (i) at least 80% increase in the E2-normalized signal in the AP assay (agonist mode) and (ii) no more than 80% reduction in the E2-normalized signal in the AP assay (antagonist mode))”.

`CCCN1CC(n2cc3cc([C@@H]4c5[nH]c6ccccc6c5C[C@@H](C)N4CC(F)(F)CO)ccc3n2)C1` (racemic) [Compound I-108, 2,2-difluoro-3-[rac-(1R,3R)-3-methyl-1-[2-(1-propylazetidin-3-yl)indazol-5-yl]-1,3,4,9-tetrahydropyrido[3,4-b]indol-2-yl]propan-1-ol]: the “Activity” value is “+ (estrogen receptor agonism having (i) at least 80% increase in the E2-normalized signal in the AP assay (agonist mode) and (ii) no more than 80% reduction in the E2-normalized signal in the AP assay (antagonist mode))”.

With `C[C@@H]1Cc2c([nH]c3ccccc23)[C@@H](c2c[nH]c3cc(CN(C)CCCF)ccc23)N1CC(C)(C)F` [Compound I-9, 3-fluoro-N-[[3-[(1R,3R)-2-(2-fluoro-2-methyl-propyl)-3-methyl-1,3,4,9-tetrahydropyrido[3,4-b]indol-1-yl]-1H-indol-6-yl]methyl]-N-methyl-propan-1-amine], the “Activity” value is “+ (estrogen receptor agonism having (i) at least 80% increase in the E2-normalized signal in the AP assay (agonist mode) and (ii) no more than 80% reduction in the E2-normalized signal in the AP assay (antagonist mode))”.

Take `CC1CN(Cc2cc3cc([C@@H]4c5[nH]c6ccccc6c5C[C@@H](C)N4CC(C)(C)F)sc3[nH]2)C1` [Compound I-62, 2-[(1S,3R)-2-(2-fluoro-2-methyl-propyl)-3-methyl-1,3,4,9-tetrahydropyrido[3,4-b]indol-1-yl]-5-[(3-methylazetidin-1-yl)methyl]-6H-thieno[2,3-b]pyrrole]: the “Activity” value is “++ (estrogen receptor antagonism having (i) between 10% and 80% increase in the E2-normalized signal in the AP assay (agonist mode) and (ii) between 10% and 80% reduction in the E2-normalized signal in the AP assay (antagonist mode))”.
